This note sets out measurements from patent US5534533A, “Carboxylate derivatives exhibiting phospholipase A2 inhibitory activity” (Shionogi & Co., Ltd., priority 1993, dated 1996).

Counter-ions that a name gives are not always drawn.

One assay deals with T1, Human secretory PLA2 (Homo sapiens, UniProt P14555).
T1 sequence (P14555 21-144): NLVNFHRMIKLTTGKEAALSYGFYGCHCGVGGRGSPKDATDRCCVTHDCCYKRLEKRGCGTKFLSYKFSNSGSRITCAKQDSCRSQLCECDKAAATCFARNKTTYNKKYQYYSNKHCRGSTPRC
Briefly: Secretory PLA2 inhibitory activity (diheptanoyl thio PC substrate, absorbance at 405 nm). The class given is biochemical. Conditions: diheptanoyl thio PC 1 mM, Triton X100 0.3 mM, pH 7.3, CaCl2 10 mM, 30 minutes, read-out: s-PLA2 Inhibition IC50. Here is the method:
Secretory PLA2 activity was assayed according to the method described in Penynolds L. J., Hughes L. L., Dennis E. A. et al. Anal. Biochem. 201,190-197 (1992).
Diheptanoyl thiophosphatidylcholine which was prepared according to the procedure described in the literature was used as a substrate. Human secretory PLA2 was used as an enzyme. The diheptanoyl thio PC (1 mM) was reacted with the human secretory PLA2 in the presence of Triton X100 (0.3 mM) and 5,5'-dithiobis-(2-nitrobenzoic acid) (125 μM) in Tris buffer (25 mM, pH 7.3), CaCl2 (10 mM), KCI (100 mM), bovine serum albumin (1.0 mg/ml), and then the change in absorbance at 405 nm at the time of 30 minutes after the reaction was assayed.
Inhibitory activity (%) was estimated by the formula: [(the change in absorbance with the inhibitor and PLA2 ·the change in absorbance with the inhibitor and without PLA2)/(the change in absorbance without the inhibitor and with PLA2 ·the change in absorbance without the inhibitor and PLA2)]×100.
IC50 value (μM) was calculated from graph showing inhibitory values on the vertical axis and log of concentrations of the inhibitor on the horizontal axis.

In assay [1] the target is T2, intracellular PLA2 (cytosolic PLA2, cPLA2) (Homo sapiens, UniProt P47712).
T2 sequence (P47712 1-749): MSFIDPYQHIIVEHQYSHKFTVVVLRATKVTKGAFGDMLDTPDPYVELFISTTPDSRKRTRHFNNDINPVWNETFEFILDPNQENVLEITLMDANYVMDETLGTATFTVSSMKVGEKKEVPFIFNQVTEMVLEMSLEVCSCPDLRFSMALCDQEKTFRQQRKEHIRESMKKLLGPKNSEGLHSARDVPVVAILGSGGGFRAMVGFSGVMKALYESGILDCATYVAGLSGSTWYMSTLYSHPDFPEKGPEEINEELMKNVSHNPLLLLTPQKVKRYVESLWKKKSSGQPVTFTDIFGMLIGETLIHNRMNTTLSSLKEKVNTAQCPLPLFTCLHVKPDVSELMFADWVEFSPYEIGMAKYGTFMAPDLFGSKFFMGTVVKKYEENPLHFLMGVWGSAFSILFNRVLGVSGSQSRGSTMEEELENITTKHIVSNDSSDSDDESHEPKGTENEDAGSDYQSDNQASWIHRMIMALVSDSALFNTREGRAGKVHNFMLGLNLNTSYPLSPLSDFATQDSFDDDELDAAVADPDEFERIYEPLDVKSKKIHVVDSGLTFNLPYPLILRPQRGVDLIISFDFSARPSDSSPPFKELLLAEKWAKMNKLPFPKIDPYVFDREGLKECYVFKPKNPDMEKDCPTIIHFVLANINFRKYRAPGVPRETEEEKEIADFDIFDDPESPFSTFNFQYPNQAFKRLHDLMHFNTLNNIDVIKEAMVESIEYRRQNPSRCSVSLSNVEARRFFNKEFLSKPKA
Briefly: Intracellular PLA2 (cPLA2) inhibitory activity (14C-arachidonyl phosphatidylcholine substrate). The class given is biochemical. The note with it: 2 μM radiolabelled phosphatidylcholine, 1 μM dioleoylglycerol, 1 mM CaCl2, pH 7.4; read-out: c-PLA2 Inhibition IC50. On the procedure: cPLA2 activity was assayed according to the method described in R. M. Kramer, E. F. Roberts, J. Manetta and J. E. Putnam, J. Biol. Chem., 268 (8), 5268-5272 (1991). Briefly, intracellular PLA2 activity was assayed using supersonic treated […] which contain 1-palmitoyl-2-[^14 C]arachidonyl-sn-glycero-3-phosphocholine and sn-1, 2-dioleoylglycerol at a molar ratio of 2:1. This test mixture contained 1 mM CaCl2, 2 mM dithiothreitol, 150 mM NaCl, 50 mM Hepes, pH 7.4 and 0.1 mg/ml BSA. A substrate is a 2 μM radioisotope labelled phosphatidylcholine ribosome containing 1 μM dioleoylglycerol. IC50 value is calculating in the same manner as in calculating it for secretory PLA2 inhibitory activity.

`COc1c(C)c(OC(=O)c2c(C)c(C)c(OCCCNc3ccc(C(F)(F)F)cc3)c(C)c2OC)c(C)c(C)c1C(=O)O` [Example 22, 4-[4-[3-(4-Trifluoromethylphenylamino)propyloxy]-2-methoxy-3,5,6-trimethylphenylcarboxy]-2-methoxy-3,5,6 trimethylbenzoic acid hydrochloride]: the concentration for half-maximal inhibition (IC50) came out at 42 µM at Human secretory PLA2 and 4.3 µM in assay [1].
For `COc1c(C)c(OC(=O)c2c(C)c(C)c(OCCCOc3ccc(Cl)cc3Cl)c(C)c2OC)c(C)c(C)c1C(=O)O` [Example 24, 4-{4-[3-(2,4-Dichlorophenoxy)propoxy]-2-methoxy-3,5,6-trimethylbenzoyloxy}-2-methoxy-3,5,6-trimethylbenzoic Acid] the same measures were 12 µM and 2.8 µM.
For `COc1c(C)c(OC(=O)c2c(C)c(C)c(OCCCOc3ccc(Br)cc3Br)c(C)c2OC)c(C)c(C)c1C(=O)O` [Example 26, 4-{4-[3-(2,4-Dibromophenoxy)propoxy]-2-methoxy-3,5,6-trimethylbenzoyloxy}-2-methoxy-3,5,6-trimethylbenzoic Acid], in that order: 15 µM and 2.6 µM.
As to `COc1c(C)c(OC(=O)c2c(C)c(C)c(OCCCOc3cc4c(cc3C(c3ccccc3)c3ccccc3)OCO4)c(C)c2OC)c(C)c(C)c1C(=O)O` [Example 27, 4-{4-[3-(6-Benzhydrylbenzo[1, 3]dioxol-5-yloxy)-propoxy]-2-methoxy-3,5,6-trimethylbenzoyloxy}-2-methoxy-3,5,6-trimethylbenzoic Acid], the IC50 on Human secretory PLA2 was found to be 13 µM; in assay [1], 1.5 µM.
Take `COc1c(C)c(OC(=O)c2c(C)c(C)c(OCCCOc3ccc4c(c3)OCO4)c(C)c2OC)c(C)c(C)c1C(=O)O` [Example 28, 4-{4-[3-(Benzo[1, 3]dioxol-5-yloxy)propoxy]-2-methoxy-3,5,6-trimethylbenzoyloxy}-2-methoxy-3,5,6-trimethylbenzoic Acid]: the figures for the IC50 (on Human secretory PLA2; in assay [1]) were 6.9 µM and 10 µM, respectively.
On to `CCc1ccc(OCCCOc2c(C)c(C)c(C(=O)Oc3c(C)c(C)c(C(=O)O)c(OC)c3C)c(OC)c2C)cc1` [Example 30, 4-{4-[3-(4-Ethylphenoxy)propoxy]-2-methoxy-3,5,6-trimethylbenzoyloxy}-2-methoxy-3,5,6-trimethylbenzoic Acid], for which the values for the IC50 (on Human secretory PLA2; in assay [1]) were 16 µM and 5.4 µM, respectively.
For `COc1c(C)c(OC(=O)c2c(C)c(C)c(OCCCOc3ccc(C(C)=O)cc3)c(C)c2OC)c(C)c(C)c1C(=O)O` [Example 31, 4-{4-[3-(4-Acetylphenoxy)propoxy]-2-methoxy-3,5,6-trimethylbenzoyloxy}-2-methoxy-3,5,6-trimethylbenzoic Acid] the same measures were 7 µM and 24 µM.
For `COc1c(C)c(OC(=O)c2c(C)c(C)c(OCCCOc3ccc(C(=O)O)cc3)c(C)c2OC)c(C)c(C)c1C(=O)O` [Example 32, 4-{4-[3-(4-Carboxyphenoxy)propoxy]-2-methoxy-3,5,6-trimethylbenzoyloxy}-2-methoxy-3,5,6-trimethylbenzoic Acid], in that order: 10 µM and 38 µM.
Regarding `COc1c(C)c(OC(=O)c2c(C)c(C)c(OCCCOc3ccccc3F)c(C)c2OC)c(C)c(C)c1C(=O)O` [Example 33, 4-{4-[3-(2-Fluorophenoxy)propoxy]-2-methoxy-3,5,6-trimethylbenzoyloxy}-2-methoxy-3,5,6-trimethylbenzoic Acid], the IC50 is 26 µM at Human secretory PLA2 and 12 µM in assay [1].
For `COc1c(C)c(OC(=O)c2c(C)c(C)c(OCCCOc3cccc(F)c3)c(C)c2OC)c(C)c(C)c1C(=O)O` [Example 34, 4-{4-[3-(3-Fluorophenoxy)propoxy]-2-methoxy-3,5,6-trimethylbenzoyloxy}-2-methoxy-3,5,6-trimethylbenzoic Acid] the same measures were 50 µM and 9.7 µM.
In the case of `COc1c(C)c(OC(=O)c2c(C)c(C)c(OCCCS(=O)(=O)c3ccc(F)cc3)c(C)c2OC)c(C)c(C)c1C(=O)O` [Example 36, 4-{4-[3-(4-Fluorobenzenesulfonyl)propoxy]-2-methoxy-3,5,6-trimethylbenzoyloxy}-2-methoxy-3,5,6-trimethylbenzoic Acid], the figures for the IC50 (on Human secretory PLA2; in assay [1]) were 50 µM and above 50 µM, respectively.
As for `COc1c(C)c(OC(=O)c2c(C)c(C)c(OCCCOc3cccc(F)c3F)c(C)c2OC)c(C)c(C)c1C(=O)O` [Example 37, 4-{4-[3-(2,3-Difluorophenoxy)propoxy]-2-methoxy-3,5,6-trimethylbenzoyloxy}-2-methoxy-3,5,6-trimethylbenzoic Acid], the IC50 on Human secretory PLA2 turned out to be 12 µM; in assay [1], 6.6 µM.
For `COc1c(C)c(OC(=O)c2c(C)c(C)c(OCCCOc3c(F)cccc3F)c(C)c2OC)c(C)c(C)c1C(=O)O` [Example 38, 4-{4-[3-(2,6-Difluorophenoxy)propoxy]-2-methoxy-3,5,6-trimethylbenzoyloxy}-2-methoxy-3,5,6-trimethylbenzoic Acid], in that order: 6.7 µM and 7.1 µM.
For `COc1ccccc1OCCCOc1c(C)c(C)c(C(=O)Oc2c(C)c(C)c(C(=O)O)c(OC)c2C)c(OC)c1C` [Example 39, 4-{4-[3-(2-Methoxyphenoxy)propoxy]-2-methoxy-3,5,6-trimethylbenzoyloxy}-2-methoxy-3,5,6-trimethylbenzoic Acid], in that order: 8.9 µM and 12 µM.
For `COc1cccc(OC)c1OCCCOc1c(C)c(C)c(C(=O)Oc2c(C)c(C)c(C(=O)O)c(OC)c2C)c(OC)c1C` [Example 40, 4-{4-[3-(2,6-Dimethoxyphenoxy)propoxy]-2-methoxy-3,5,6-trimethylbenzoyloxy}-2-methoxy-3,5,6-trimethylbenzoic Acid], the values for the IC50 (at Human secretory PLA2; in assay [1]) were 6.1 µM and 13 µM, respectively.
For `COc1cc(OC)cc(OCCCOc2c(C)c(C)c(C(=O)Oc3c(C)c(C)c(C(=O)O)c(OC)c3C)c(OC)c2C)c1` [Example 41, 4-{4-[3-(3,5-Dimethoxyphenoxy)propoxy]-2-methoxy-3,5,6-trimethylbenzoyloxy}-2-methoxy-3,5,6-trimethylbenzoic Acid] the same measures were 7 µM and 5.9 µM.
For `COc1c(C)c(OC(=O)c2c(C)c(C)c(OCCCOc3ccc(C(N)=O)cc3)c(C)c2OC)c(C)c(C)c1C(=O)O` [Example 42, 4-{4-[3-(4-Carbamoylphenoxy)propoxy]-2-methoxy-3,5,6-trimethylbenzoyloxy}-2-methoxy-3,5,6-trimethylbenzoic Acid] the same measures were 5 µM and 31 µM.
For `COC(=O)c1ccc(OCCCOc2c(C)c(C)c(C(=O)Oc3c(C)c(C)c(C(=O)O)c(OC)c3C)c(OC)c2C)cc1` [Example 43, 4-{4-[3-(4-Methoxycarbonylphenoxy)propoxy]-2-methoxy-3,5,6-trimethylbenzoyloxy}-2-methoxy-3,5,6 trimethylbenzoic Acid] the same measures were 5.1 µM and 14 µM.
In the case of `COc1c(C)c(OC(=O)c2c(C)c(C)c(OCCCOc3ccc(F)cc3)c(C)c2OC)c(C)c(C)c1C(N)=O` [Example 44, 4-{4-[3-(4-Fluorophenoxy)propoxy]-2-methoxy-3,5,6-trimethylbenzoyloxy}-2-methoxy-3,5,6-trimethylbenzamide], the IC50 on Human secretory PLA2 turned out to be 0.94 µM; in assay [1] it was 9.3 µM.

The IC50 is the concentration needed to halve the response being measured.
